Measured values from patent US11952388B2, “Crystal form of tri-cycle compound and application thereof” (FUJIAN AKEYLINK BIOTECHNOLOGY CO., LTD., priority 2018, dated 2024).

How the values were obtained:
[1] = Pharmacokinetics of oral administration and intravenous injection in Balb/c mice; format: in vivo; settings: female, mouse, plasma
Protocol: 1. Study on the Pharmacokinetics of Oral Administration and Intravenous Injection of the Compound Represented by Formula (I) in Balb/c Mice The compound represented by formula (I) was mixed with 5% DMSO/55% polyethylene glycol 400/40% aqueous solution, vortexed and sonicated to obtain an approximately clear solution of 1 mg/mL, which was then filtered by a microporous membrane for later use. Female Balb/c mice aged 7 to 10 weeks were selected and the candidate compound solution was administered intravenously at a dose of 1 mg/kg. The compound represented by formula (I) was mixed with 10% solutol (polyethylene glycol-15 hydroxystearate) aqueous solution, vortexed and sonicated to obtain an approximately clear solution of 1 mg/mL, which was then filtered through a microporous membrane for later use. Female Balb/c mice aged 7 to 10 weeks were selected and the candidate compound solution was orally administered at a dose of 10 mg/kg. Whole blood was collected at a certain period of time to prepare plasma, drug concentration was analyzed by LC-MS/MS method, and pharmacokinetic parameters was calculated by Phoenix WinNonlin software (Pharsight, USA). Note: T1/2 means half-life; Vdss means apparent volume of distribution; Cl means clearance rate; AUC0_last means area below the drug-time curve; Tmax means peak time; Cmax means peak concentration; F % means oral bioavailability; iv means intravenous injection; PO means oral administration; mpk means mg/kg.

CYP2C9 = target: T1, CYP2C9 (Homo sapiens, UniProt P11712); assay: Inhibition of human liver microsomal cytochrome P450 isoenzymes; format: in vitro ADME; settings: human liver microsomes
T1 construct: from tissue; host or cells: human liver microsomes
T1 sequence (P11712 whole entry): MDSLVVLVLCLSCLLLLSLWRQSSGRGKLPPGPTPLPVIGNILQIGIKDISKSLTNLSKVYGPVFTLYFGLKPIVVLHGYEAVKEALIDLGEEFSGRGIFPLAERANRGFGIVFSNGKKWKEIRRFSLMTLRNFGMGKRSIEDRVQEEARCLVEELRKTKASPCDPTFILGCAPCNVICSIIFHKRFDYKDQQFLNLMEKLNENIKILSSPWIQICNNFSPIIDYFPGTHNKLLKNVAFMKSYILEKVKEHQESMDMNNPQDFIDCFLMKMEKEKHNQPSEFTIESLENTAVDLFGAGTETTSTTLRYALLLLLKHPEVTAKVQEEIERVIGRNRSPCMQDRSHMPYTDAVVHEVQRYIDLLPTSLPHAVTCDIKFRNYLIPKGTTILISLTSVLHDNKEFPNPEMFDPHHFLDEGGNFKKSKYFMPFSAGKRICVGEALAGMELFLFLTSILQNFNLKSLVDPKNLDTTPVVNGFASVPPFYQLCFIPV
Protocol: (§1) Objectives of experiment: To determine the inhibitory effect of the test compound on the activity of human liver microsomal cytochrome P450 isoenzymes (CYP1A2, CYP2C9, CYP2C19, CYP2D6 and CYP3A4). Experimental operation: First, the test compound (10 mM) was diluted in a gradient to prepare the working solutions (100× final concentration). The concentrations of the working solutions were 5, 1.5, 0.5, 0.15, 0.05, 0.015 and 0.005 mM. Meanwhile, the working solutions of mixture (5 in 1) of positive inhibitors of each P450 isoenzyme (CYP1A2, CYP2C9, CYP2C19, CYP2D6 and CYP3A4) and the specific substrate of the isoenzymes were also prepared; the human liver microsomes frozen in the refrigerator at −80° C. were unfrozen on ice. After the human liver microsomes were completely dissolved, they were diluted with PB to prepare a certain concentration (0.253 mg/mL) of working solution; 20 uL of the substrate mixture was added into the reaction plate (20 μl PB was added into the Blank well) as well as 158 μL of human liver microsome working solution, then the reaction plate was placed on ice and set aside; at this time, 2 μL of each concentration of test compound (N=1) and specific inhibitor (N=2) were added to the corresponding well, the group without inhibitor (test compound or positive inhibitor) was added with the corresponding organic solvent as a control sample (the test compound control sample was 1:1 DMSO:MeOH, and the positive control sample was 1:9 DMSO:MeOH); after pre-incubating in a 37° C. water bath for 10 min, the reaction plate was added with 20 μL of coenzyme factor (NADPH) solution and water bathed at 37° C. for 10 min; 400 μL of cold acetonitrile solution (internal standard was 200 ng/mL Tolbutamide and Labetalol) was added to terminate the reaction; the reaction plate was then placed on a shaker and shaken for 10 min, followed by centrifuging at 4,000 rpm for 20 min; 200 μL of supernatant was added to 100 μL of water for sample dilution; finally, the plate was sealed, shaken well, and subjected to LC/MS/MS detection.

CYP1A2 = target: T2, CYP1A2 (Homo sapiens, UniProt P05177); assay: as above; format: in vitro ADME; settings: human liver microsomes
T2 construct: from tissue; host or cells: human liver microsomes
T2 sequence (P05177 1-516): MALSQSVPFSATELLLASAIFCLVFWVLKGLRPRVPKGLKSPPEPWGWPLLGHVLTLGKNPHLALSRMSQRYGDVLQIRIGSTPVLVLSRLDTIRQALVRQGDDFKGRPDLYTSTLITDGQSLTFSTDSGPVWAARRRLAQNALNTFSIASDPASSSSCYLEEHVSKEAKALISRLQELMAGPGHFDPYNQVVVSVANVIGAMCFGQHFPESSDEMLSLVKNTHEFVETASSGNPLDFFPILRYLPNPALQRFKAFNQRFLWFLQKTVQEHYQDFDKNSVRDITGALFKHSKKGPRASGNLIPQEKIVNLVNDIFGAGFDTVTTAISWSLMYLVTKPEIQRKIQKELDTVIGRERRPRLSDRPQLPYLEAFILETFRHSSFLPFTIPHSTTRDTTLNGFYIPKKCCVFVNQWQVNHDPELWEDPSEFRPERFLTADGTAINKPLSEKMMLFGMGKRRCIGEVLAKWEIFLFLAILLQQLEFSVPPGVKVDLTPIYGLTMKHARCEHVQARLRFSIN
Protocol: as §1

CYP3A4 = target: T3, CYP3A4 (Homo sapiens, UniProt P08684); assay: as above; format: in vitro ADME; settings: human liver microsomes
T3 construct: from tissue; host or cells: human liver microsomes
T3 sequence (P08684 whole entry): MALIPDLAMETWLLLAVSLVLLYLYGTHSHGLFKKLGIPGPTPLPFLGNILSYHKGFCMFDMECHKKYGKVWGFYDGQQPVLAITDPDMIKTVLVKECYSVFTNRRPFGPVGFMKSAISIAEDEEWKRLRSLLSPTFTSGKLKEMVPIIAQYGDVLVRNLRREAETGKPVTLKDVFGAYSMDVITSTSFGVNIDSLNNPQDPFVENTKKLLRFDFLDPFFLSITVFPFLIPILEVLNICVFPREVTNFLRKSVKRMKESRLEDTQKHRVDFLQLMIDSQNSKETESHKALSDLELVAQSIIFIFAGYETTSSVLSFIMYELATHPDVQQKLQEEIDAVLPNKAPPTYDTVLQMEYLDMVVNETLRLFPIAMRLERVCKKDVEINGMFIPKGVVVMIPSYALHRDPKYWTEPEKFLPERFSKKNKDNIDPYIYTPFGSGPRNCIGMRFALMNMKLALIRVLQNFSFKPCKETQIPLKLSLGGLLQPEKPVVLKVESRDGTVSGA
Protocol: as §1

[2] = Pharmacokinetics of oral administration and intravenous injection in Beagle; format: in vivo, beagle dogs
Protocol: 3. Study on the Pharmacokinetics of Oral Administration and Intravenous Injection of the Compound Represented by Formula (I) in Beagle The compound represented by formula (I) was mixed with 5% DMSO/55% polyethylene glycol 400/40% aqueous solution, vortexed and sonicated to obtain an approximately clear solution of 1 mg/mL, which was then filtered by a microporous membrane for later use. Male beagle dogs weighed about 10 kg were selected and the candidate compound solution was administered intravenously at a dose of 1 mg/kg. The compound represented by formula (I) was mixed with 10% solutol aqueous solution, vortexed and sonicated to obtain an approximately clear solution of 2 mg/mL, which was then filtered through a microporous membrane for later use. Male beagle dogs weighed about 10 kg were selected and the candidate compound solution was orally administered at a dose of 10 mg/kg. Whole blood was collected at a certain period of time to prepare plasma, drug concentration was analyzed by LC-MS/MS method, and pharmacokinetic parameters was calculated by Phoenix WinNonlin software (Pharsight, USA). Note: T1/2 means half-life; Vdss means apparent volume of distribution; Cl means clearance rate; AUC0_last means area below the drug-time curve; Tmax means peak time; Cmax means peak concentration; F % means oral bioavailability; iv means intravenous injection; PO means oral administration; mpk means mg/kg.

[3] = male, beagle, dog, plasma, 1 mg/kg, Dogs, iv 1 mpk
[4] = male, beagle, dog, plasma, 10 mg/kg, Dogs, po 10 mpk

Cc1cc2n(c1)S(=O)(=O)c1ccc(C(=O)NCC[C@H]3COCCO3)cc1NC2=O [compound represented by formula (I)]
clearance ([1]; 1 mg/kg, iv 1 mpk): 8.5 mL/min/kg | half-life ([1]; 1 mg/kg, iv 1 mpk): 1.2 h | AUC(0-t) ([1]; 1 mg/kg, iv 1 mpk, read-out: AUC0-last): 4.67 µM·h | Vd ([1]; 1 mg/kg, iv 1 mpk, read-out: Vdss): 0.45 L/kg | Cmax ([1]; 10 mg/kg, po 10 mpk): 19.9 µM | Tmax ([1]; 10 mg/kg, po 10 mpk): 0.5 h | bioavailability ([1]; 10 mg/kg, po 10 mpk): 70% | AUC(0-t) ([1]; 10 mg/kg, po 10 mpk, read-out: AUC0-24h): 32.5 µM·h | IC50 (CYP2C9): > 50 µM | inhibitory effect on CYP2C9 (conclusion in words) (CYP2C9): no evident inhibitory effect | IC50 (CYP1A2): > 50 µM | inhibitory effect on CYP1A2 (conclusion in words) (CYP1A2): no evident inhibitory effect | IC50 (CYP3A4): > 50 µM | inhibitory effect on CYP3A4 (conclusion in words) (CYP3A4): no evident inhibitory effect | pharmacokinetics (conclusion in words) ([2]; Beagle): good single or partial index of pharmacokinetics | clearance [2, 3]: 15.6 mL/min/kg | half-life [2, 3]: 2.87 h | AUC(0-t) ([2]; male, beagle, dog, plasma, 1 mg/kg, Dogs, iv 1 mpk, read-out: AUC0-last): 2.68 µM·h | Vd ([2]; male, beagle, dog, plasma, 1 mg/kg, Dogs, iv 1 mpk, read-out: Vdss): 2.95 L/kg | Cmax [2, 4]: 5.85 µM | Tmax [2, 4]: 1.67 h | bioavailability [2, 4]: 126% | AUC(0-t) ([2]; male, beagle, dog, plasma, 10 mg/kg, Dogs, po 10 mpk, read-out: AUC0-24h): 33.2 µM·h
